Test results taken from EP1013664A1, “Antigenic determinants for drug-specific T lymphocytes from drug-allergic patients” (Max-Planck-Gesellschaft zur Förderung der Wissenschaften …, priority 1998, dated 2000).

Experiments:
[1] = system: tetanus toxoid-specific T cell clone 1ES4; type: cell-based, human
clone ES5.13 = test: Cytokine measurement in culture supernatants of clone ES5.13; type: cell-based, human; conditions: for interference on Pen G-induced IL2 secretion: added together with 0.25 mg/ml of Pen G; for cytokine response to the derivative alone: without Pen G
Experimental: (§1) For cytokine measurement, 10^5 T cells and 5 x 10^4 autologous, irradiated EBV-B cells were mixed in 200 µl of complete RPMI-FCS medium containing appropriate Ag concentration. After overnight incubation, supernatants were collected and tested for the concentration of IL2, IFNγ and IL4. IL2 was quantified on a IL2-dependent CTLL line. IFNγ was measured by a sandwich ELISA as described (12). IL-4 was measured using the Duo-Set ELISA kit provided by Genzyme Diagnostics, Cambridge, MA. Eventually, cells were kept in culture for another 24 h and cellular proliferation was measured by thymidine uptake as described above.
In a first set of experiments we studied the effect of the Pen V and Amp derivatives on the T cell phenotype induced by Pen G on two hapten-specific CD4^+ cell clones.

clone BAM25 = test: Cytokine measurement in culture supernatants of clone BAM25; type: cell-based, human; conditions: for cytokine response to the derivative alone: without Pen G
[2] = system: PBMC from donors allergic to β-lactams; test: Flow cytometric analysis of intracellular IFNγ and IL4 production in Pen G-stimulated PBMC cultures; type: cell-based, human; conditions: restimulated with PMA and ionomycin, intracellular staining
Experimental: (§2) Cells at a concentration of 3 x 10^5/w were stimulated with 3-fold dilutions of Pen G from 3 mg/ml to 0.1 µg/ml. After 5 days incubation at 37°C in 5% CO2, the proliferative response was determined, in one of the plates, as the ^3H-thymidine incorporation after 16 h incubation with […] = 37 kBq ^3H-thymidine (Dupont, Boston, MA). Cells were harvested on GF/A-filters (Dunn Labortechnik GmbH, Asbach, Germany) and the incorporation was measured in an automatic β-counter (Inotech, Asbach, Germany). The second plate was further expanded in IL2-containing medium for 4 days. Cells were then pooled for any given Pen G concentration, washed and rested in the absence of IL2. After another 4 days, cells were harvested and analysed for TCR expression by cell surface staining and IL4/IFNγ production by intracellular staining.
Intracellular staining for cytokines was performed following the protocol described by Murphy et al. (12), with few modifications. […] Samples were resuspended in PBS/BSA and analyzed on a FACScan flow cytometer (Becton Dickinson & Co.). […] Results were analyzed using Cellquest software. T cells were detected by standard surface staining using the PE-conjugated anti human TCRαβ antibody (Clone BMA03, Immunotech, Marseille, France). […]

[3] = system: PBMC from donors allergic to β-lactams; test: Proliferative response of primary PBMC cultures to Pen G (3H-thymidine incorporation); type: cell-based, human; conditions: 5 days incubation
Experimental: as §2
Patients BAM, CAS and ES participating to this study developed allergic reactions after treatment with β-lactam antibiotics and their clinical data are summarized in Table I. At the time of diagnosis they all presented different symptoms after treatment with β-lactams as well as positive LTT in vitro (Table I; ref. 2, 4 and data not shown). […] After 5 days of incubation, the proliferative response was measured in one of the cultures by thymidine incorporation. […] The intensity of the response was dose-dependent, with maximal proliferation at 0.3 mg/ml of Pen G.

[4] = system: Pen G-specific T cell clones; test: Proliferation and IL4/IFNγ secretion of a panel of T cell clones at different Pen G doses; type: cell-based, human
Experimental: T cell clones were generated from Pen G specific T cell lines. Freshly isolated PBMC were stimulated with 1, 0.3, 0.1 mg/ml of Pen G at a density of 2 x 10^5 cells/well in a final volume of 200 µl of complete RPMI containing 5 % HS in 96-well flat bottom culture plates. After 5 days at 37°C and 5 % CO2, 25 U/ml of IL2 was added to the wells. After another 4 days the cultures were pooled, rested for 3 days in the absence of IL2 and subjected to a second round of restimulation using irradiated autologous PBMC as APC and the same dose of Pen G given during the first restimulation. After 3 days the different cultures were again expanded in IL2 containing medium and then cloned by limiting dilution. T cell blasts were seeded at 0.3 cells/well in Terasaki plates (Nunc, Roskilde, Denmark) in the presence of 1 µg/ml PHA and 10^4 irradiated allogeneic PBMC in complete RPMI medium containing 5 % HS and 250 U/ml IL-2. The T cell clones obtained were maintained in culture by periodic stimulation in the presence of irradiated allogeneic PBMC, PHA and IL2.
as §1
In order to evaluate the role of Pen G doses in inducing functional differentiation of established T lymphocytes, a panel of independent Pen G-specific T cell clones was prepared. PBMC from donors two were subjected to two rounds of stimulation, in vitro, with Pen G at concentrations of 1, 0.3 and 0.1 mg/ml in three independent T cell lines. After expansion in IL2-containing medium, each line was independently cloned by limiting dilution. A total of 18 Pen G-specific T cell clones were obtained from donor two and 24 from donor one. The hapten-specific T cell phenotype was induced stimulating each T cell clone with 3-fold dilution of Pen G, from 3 mg/ml to 0.03 mg/ml concentration, in the presence of irradiated autologous EBV-B cells. After 24 h incubation, supernatants were harvested and processed for cytokine measurement, while cells were kept in culture for another 24 h and T cell proliferation was measured by thymidine uptake. We then examined IL4 and IFNγ secretion induced in the presence of the highest and lowest Pen G dose able to trigger cellular proliferation, considering SI values ≥ 2.0 as positive response.

mouse Th1 cells = conditions: through specific inhibition of p38 MAP kinases; cited from earlier work
[5] = added together with 0.25 mg/ml of Pen G, 24 h
[6] = high concentration, together with 0.25 mg/ml of Pen G
[7] = 0.25 mg/ml of Pen G only, 24 h incubation

## CC1(C)S[C@@H]2[C@H](NC(=O)[C@H](N)c3ccccc3)C(=O)N2[C@H]1C(=O)O [Amp, Ampicillin]
[1]
  effect on cytokine secretion: no effect
Clone ES5.13
  interference on Pen G-induced IL2 secretion: no interference
  cytokine response to the derivative alone: None of them responded
Clone BAM25; [5]
  effect on the Pen G-induced cytokine pattern: did not affect
Clone BAM25; [6]
  effect on IFNγ secretion: slight reduction
Clone BAM25
  cytokine response to the derivative alone: None of them responded

## CC1(C)S[C@@H]2[C@H](NC(=O)Cc3ccccc3)C(=O)N2[C@H]1C(=O)O [Pen G, Penicillin G]
[2]
  cells expanded upon in vitro stimulation: mainly IL4^+ and IL4^+IFNγ^+ cells are expanded
Clone ES5.13; [7]
  IL2 (100% value): 40.3 SI
  IL4 (100% value): 5414 pg/mL
Clone BAM25; [7]
  IFNγ (100% value): 6637 pg/mL
  IL2 (100% value): 80.5 SI of CTLL cells
  IL4 (100% value): 5788 pg/mL
Clone BAM25; Pen G 1 mg/ml, behaved as a Th2 clone
  cytokine pattern: secreting IL4 but not IFNγ
[3]
  Pen G concentration of maximal proliferation: 0.3 mg/mL
[4]; clones from donor one, SI ≥ 2.0 as positive response
  lowest doses capable of triggering cellular proliferation: ≥ 0.3 mg/mL
[4]; clones from donor one, only at the highest dose tested
  dose at which clones could secrete IL4: 3 mg/mL
[4]; clones from donor two
  clones in which lower concentration induced higher level of IFNγ secretion: 14 of the 18
[4]; clones from donor two, number of clones
  clones able to shift from type 0 to type 1 responses: 5
[4]; clones from donor two, SI ≥ 2.0 as positive response
  lowest dose capable of triggering cellular proliferation: 0.03 mg/mL
[4]; clones isolated from donor two
  clones able to shift their phenotype from type 0 to type 1: 35%

## CC1(C)S[C@@H]2[C@H](NC(=O)COc3ccccc3)C(=O)N2[C@H]1C(=O)O [Pen V, Penicillin V]
[1]
  concentration at which IFNγ secretion is completely abrogated: ≥ 0.1 mg/mL
  effect on IL2 production: unaffected
Clone ES5.13
  interference on Pen G-induced IL2 secretion: no interference
  cytokine response to the derivative alone: None of them responded
Clone ES5.13; [6]
  effect on IL4 production: only a marginal reduction
Clone BAM25; [5]
  concentrations at which IFNγ production is completely abrogated: ≥ 0.1 mg/mL
  effect on IL4 secretion: without affecting IL4 secretion
  reduction of the amount of IL2: about 50%
Clone BAM25
  cytokine response to the derivative alone: None of them responded

## C[S+]([O-])c1ccc(-c2nc(-c3ccncc3)c(-c3ccc(F)cc3)[nH]2)cc1 (stereo not drawn) [SB203580]
Mouse Th1 cells
  effect on IFNγ: selectively induces IFNγ downmodulation
